Reference: patent EP3171885B1, “PEPTIDE HYDROLYSATE OF SNAILS, PEPTIDE FRACTIONS, PRODUCTION METHOD, USE AND COMPOSITIONS FOR INHIBITING THE ANGIOTENSIN CONVERTING ENZYME” (Drevet, Pascal, priority 2014, dated 2016)
Read-outs that look alike come from different tables or passages of the source. Where a SMILES comes first, the peptide text is derived from it.

Target: enzyme de conversion de l'angiotensine (ECA) (Homo sapiens, UniProt P12821)
Assay: biochemical
Method: Brièvement, cette méthode repose sur l'hydrolyse du substrat Hippuryl-L-Histidyl-L-Leucine (HHL) par l'ECA pour produire de l'acide hippurique (HA) et de l'Histydil-Leucine. Après incubation à 37°C pendant 30 minutes dans du tampon borate de sodium pH 8,3, la réaction est arrêtée par addition de HCI. La séparation du substrat HHL et du produit HA est réalisé par chromatographie liquide haute pression en phase inversée (RP-HPLC) sur une colonne C18 (Kinetex). L'élution se fait par un mélange d'eau (75% v/v) et d'acétonitrile (25% V/V).
La comparaison entre la concentration de HA produite pour chaque concentration d'échantillon avec celle obtenue sans addition de peptide permet la détermination de l'IC50.
A titre de témoin positif, le captopril est également testé en parallèle de l'hydrolysat, des fractions et des peptides. Le témoin négatif est le substrat HHL seul, sans ECA, dilué dans du tampon borate pH 8,3. L'échantillon est le peptide, la fraction ou l'hydrolysat total à tester.
Le pourcentage d'inhibition de l'ECA est calculé selon la formule suivante : Pourcentage d'inhibition ECA (%) = (ASCHA ([…])−ASCHA (Echantillon))/(ASCHA ([…])−ASCHA (HHL)) × 100 [formula]

[1] = substrate HHL 5 mM, 37°C, 30 minutes, sodium borate buffer pH 8,3, detection at 228 nm, read-out: IC50 (converted)

Chain of enzyme de conversion de l'angiotensine (ECA) (P12821 30-1306): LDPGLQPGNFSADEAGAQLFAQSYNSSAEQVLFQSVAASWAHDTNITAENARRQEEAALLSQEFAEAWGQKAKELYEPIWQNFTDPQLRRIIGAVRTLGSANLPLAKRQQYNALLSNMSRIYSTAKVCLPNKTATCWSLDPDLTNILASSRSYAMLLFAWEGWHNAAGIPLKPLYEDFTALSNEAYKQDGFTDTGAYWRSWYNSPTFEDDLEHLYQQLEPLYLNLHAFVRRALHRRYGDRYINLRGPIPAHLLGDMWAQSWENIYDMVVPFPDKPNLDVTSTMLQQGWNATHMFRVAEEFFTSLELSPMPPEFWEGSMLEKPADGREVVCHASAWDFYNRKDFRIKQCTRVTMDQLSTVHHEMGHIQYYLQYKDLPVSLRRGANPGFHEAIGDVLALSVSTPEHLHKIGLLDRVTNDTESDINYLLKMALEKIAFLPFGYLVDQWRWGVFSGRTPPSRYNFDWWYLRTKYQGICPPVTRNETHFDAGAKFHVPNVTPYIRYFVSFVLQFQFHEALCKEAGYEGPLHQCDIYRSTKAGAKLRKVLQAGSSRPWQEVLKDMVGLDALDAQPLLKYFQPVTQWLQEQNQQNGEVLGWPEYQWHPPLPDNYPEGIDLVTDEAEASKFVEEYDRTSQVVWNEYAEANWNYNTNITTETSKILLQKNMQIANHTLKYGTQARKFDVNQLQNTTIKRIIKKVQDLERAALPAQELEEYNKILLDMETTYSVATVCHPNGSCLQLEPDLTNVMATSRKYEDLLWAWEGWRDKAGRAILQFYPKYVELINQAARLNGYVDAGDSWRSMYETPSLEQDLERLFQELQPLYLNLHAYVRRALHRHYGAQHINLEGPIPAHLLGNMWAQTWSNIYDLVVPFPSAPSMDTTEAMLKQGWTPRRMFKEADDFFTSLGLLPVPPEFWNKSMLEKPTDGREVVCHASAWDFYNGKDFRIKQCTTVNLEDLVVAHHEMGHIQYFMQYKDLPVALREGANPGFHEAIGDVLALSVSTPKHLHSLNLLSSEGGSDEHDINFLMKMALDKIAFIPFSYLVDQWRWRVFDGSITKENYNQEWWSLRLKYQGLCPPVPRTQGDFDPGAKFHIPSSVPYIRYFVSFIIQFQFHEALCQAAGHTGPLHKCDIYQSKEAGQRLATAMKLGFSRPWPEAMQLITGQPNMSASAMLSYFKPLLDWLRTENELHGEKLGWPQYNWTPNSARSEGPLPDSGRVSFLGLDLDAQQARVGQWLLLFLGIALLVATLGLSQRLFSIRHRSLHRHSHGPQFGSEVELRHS

Compound	IC50 [1]	IC50
N[C@@H](CC(=O)O)C(=O)N[C@@H](Cc1ccccc1)C(=O)O [DF, Acide Aspartique -Phénylalanine] (H-Asp-Phe-OH)	1280 µM	
N[C@@H](CO)C(=O)N[C@@H](Cc1ccccc1)C(=O)O [SF, Serine-Phénylalanine]		516 µM
CC(C)[C@H](N)C(=O)N[C@@H](Cc1ccc(O)cc1)C(=O)O [VY, Valine-Tyrosine] (H-Val-Tyr-OH)	40.3 µM	
